Assay results from patent publication US20080125406A1, “Method for Treating Primary and Secondary Forms of Glaucoma” (priority 2005, published 2008).
“And” between values parts separate entries of the source, which are not always exact repeats. Identical values can stand only once.

Experiments:
[1] = system: IOP of patients with primary open angle glaucoma; assay: Single anterior juxtascleral depot (AJD) of anecortave acetate in glaucoma patients, Example 2; assay type: in vivo, human (patients); details: single ~24 mg AJD
Source text: Methods: An investigator IND and IRB approval was obtained. All patients gave informed consent. […] Prior glaucoma medications were not changed throughout study. Results: Six subjects with glaucoma and IOP≧23 mmHg (POAG [4], PDS [1], PXF [1]) mean age 59+/−8 years. Mean C/D ratio 0.8+/−0.2. Prior glaucoma medications included prostaglandins, beta blockers and/or alpha agonists (four on 1, one on 3, and one on 4). Mean pretreatment IOP was 31.3+/−11.3 mmHg. […] Patients were followed for twelve (12) months. The IOP-lowering effects peaked at approximately one month. The duration of effectiveness of the anecortave acetate was at least twelve (12) months. […] Treatment with prior glaucoma medications was discontinued for two patients due to the surprising IOP-lowering effects of the juxtasclerally administered anecortave acetate. This new method of treatment obviates problems with eye drops and many issues with compliance. Clinically meaningful additional medium-term IOP reduction is possible with a single anterior juxtascleral depot injection of anecortave acetate, much more than presently obtained with any currently available adjunctive medications.

[2] = system: IOP of patients with glaucoma caused by intravitreal injections of glucocorticoids; assay: Single administration of anecortave acetate in patients with glaucoma caused by intravitreal glucocorticoids, Example 3; assay type: in vivo, human (patients)
Source text: All patients were on maximal tolerated medical therapy for glaucoma and continued on their pre-study medications for the duration of the study.
In this group of eight eyes, three of which had prior intraocular surgery, and all of which were on at least three different types of glaucoma medications (maximum 6 medications and a mean of 4.1 different drug classes) the IOP decrease was seen as early as one week (mean 11.4 mm Hg), and appeared to reach a maximum decrease at three weeks (mean 16.4 mm Hg). FIG. 3 illustrates the decrease in IOP observed in these patients for twenty months.

[3] = system: IOP of patients; assay: Randomized dose study of anecortave acetate AJD 3, 15, 30 mg vs vehicle, Example 6; assay type: in vivo, human (patients)
Experimental: Eligible patients were randomized into four groups to receive AJD as follows: • Anecortave acetate vehicle, 0.5 mL (21 patients) • Anecortave acetate 3 mg (0.5 mL, 0.6% suspension) (22 patients) • Anecortave acetate 15 mg (0.5 mL, 3% suspension) (20 patients) • Anecortave acetate 30 mg (0.5 mL, 6% suspension) (22 patients).
The site of the AJD injection was 3-5 mm from the limbus, inferiorly (between 4 and 8 o'clock, FIG. 1), and the drug was injected slowly (30-90 sec) using a 30 gauge needle.

[4] = system: myocilin expression in trabecular meshwork cells; details: cultured trabecular meshwork cells; cited from earlier work
[5] = system: IOP elevation associated with topical dexamethasone; details: topical administration, rabbits; cited from earlier work
[6] = system: IOP; details: intravitreal injection (Singh et al. 2004); cited from earlier work
[7] = system: IOP of Dutch Belted rabbits having elevated IOP; assay: Brinzolamide anterior sub-Tenon's or topical administration in rabbits with elevated IOP, Example 4; assay type: in vivo; details: for mean percent IOP change from baseline compared to BSS control: over 7 days
Experimental: Eyes of Dutch Belted rabbits having elevated IOP were injected in the anterior segment with a carbonic anhydrase inhibitor.
Methods: Baseline IOP was measured daily for 5 days and averaged. Seven rabbits received one anterior sub-Tenon's capsule administration of 800 μl of a non-optimized 1% ophthalmic suspension of brinzolamide (AZOPT®). Seven rabbits received a 1% ophthalmic suspension of brinzolamide (AZOPT®) delivered topically once per day for seven days. Seven rabbits received one anterior sub-Tenon's administration of 800 μl of BSS®. IOP was monitored daily at 2 hours after topical drops were administered, for seven days, and weekly thereafter until IOP measurements remained the same as baseline for two measurements. […] Mean pretreatment IOP was 27.41 mm Hg. Mean change in IOP for this group was +0.18 mm Hg. Rabbits receiving either daily topical administration or subtenon's injection of brinzolamide experienced sustained lowering of IOP. For the topical administration group mean pretreatment IOP was 28.37 mm Hg. Mean change in IOP for this group was −2.48 mm Hg. […] For the group receiving one anterior subtenon's administration of a 1% brinzolamide ophthalmic suspension the mean pretreatment IOP was 27.44 mm Hg. Mean change in IOP for this group was −1.85 mm Hg. […] (See FIG. 4). […] Longer duration of action of the brinzolamide suspension from the subtenon's capsule could be achieved using higher concentration suspensions (e.g. 5% or 10%) or via encapsulation in sustained release dose forms such as microspheres.

[8] = mean pretreatment IOP 31.3+/-11.3 mmHg

Question: For `CC(=O)OCC(=O)[C@@]1(O)CC[C@H]2[C@@H]3CCC4=CC(=O)CC[C@]4(C)C3=CC[C@@]21C` [anecortave acetate, 4, 9(11)-pregnadien-17∝,21-diol-3,20-dione-21-acetate], which “mean IOP decrease at 3 months (percent)” value [1] is on record?
Answer: 38.5%+/−21%

Question: And the “time at which IOP-lowering effects peaked” value [1]?
Answer: approximately one

Question: And the “clinically significant adverse events” value ([1]; followed 12 months)?
Answer: No clinically significant adverse events occurred

Question: And the duration of effectiveness ([1]; followed 12 months)?
Answer: ≥ 12 months

Question: And the “patients with >25% IOP decrease at 3 months” value ([1]; prior glaucoma medications unchanged, six subjects, IOP>=23 mmHg)?
Answer: Five of six

Question: And the “mean IOP at 3 months” value [1, 8]?
Answer: 16.4+/−6 mm Hg

Question: What about the “mean IOP decrease at 3 months” value [1, 8] of the same molecule?
Answer: 10.8+/−7.0 mmHg

Question: What about the “patients whose prior glaucoma medications were discontinued due to IOP-lowering effect” value ([1]; six subjects) of the same molecule?
Answer: two

Question: What about the “IOP, individual eyes, 1 week” value ([2]; 1 week after single ~24 mg, baselines 34-57) of the same molecule?
Answer: 30 mm Hg (2×) and 34 mm Hg (2×) and 24 mm Hg (2×) and 23 mm Hg

Question: And the “Mean IOP, 1 week” value ([2]; 1 week, mean baseline 40.125)?
Answer: 28.43 mm Hg

Question: What about the “IOP, individual eyes, 2 mon” value ([2]; 2 mon after single ~24 mg) of the same molecule?
Answer: 30 mm Hg and 24 mm Hg and 16 mm Hg and 19 mm Hg and 23 mm Hg

Question: And the “Mean IOP, 2 mon” value ([2]; 2 mon, mean baseline 40.125)?
Answer: 22 mm Hg

Question: What about the “IOP, individual eyes, 2 weeks” value ([2]; 2 weeks after single ~24 mg, baselines 34-57) of the same molecule?
Answer: 28 mm Hg (2×) and 32 mm Hg and 19 mm Hg (2×) and 23 mm Hg and 35 mm Hg

Question: And the “Mean IOP, 2 weeks” value ([2]; 2 weeks, mean baseline 40.125)?
Answer: 24.8 mm Hg

Question: And the “IOP, individual eyes, 3 mon” value ([2]; 3 mon after single ~24 mg)?
Answer: 32 mm Hg and 18 mm Hg (2×) and 21 mm Hg and 19 mm Hg

Question: And the “Mean IOP, 3 mon” value ([2]; 3 mon, mean baseline 40.125)?
Answer: 19.3 mm Hg

Question: And the “IOP, individual eyes, 3 weeks” value ([2]; 3 weeks after single ~24 mg)?
Answer: 30 mm Hg and 17 mm Hg and 19 mm Hg (2×) and 37 mm Hg

Question: And the “Mean IOP, 3 weeks” value ([2]; 3 weeks, mean baseline 40.125)?
Answer: 24.4 mm Hg

Question: And the “IOP, individual eyes, 4 mon” value ([2]; 4 mon after single ~24 mg)?
Answer: 17 mm Hg and 16 mm Hg and 23 mm Hg and 21 mm Hg

Question: What about the “Mean IOP, 4 mon” value ([2]; 4 mon, mean baseline 40.125) of the same molecule?
Answer: 20 mm Hg

Question: What about the “IOP, individual eyes, 4 weeks” value ([2]; 4 weeks after single ~24 mg) of the same molecule?
Answer: 30 mm Hg (2×) and 28 mm Hg and 31 mm Hg and 14 mm Hg and 21 mm Hg and 19 mm Hg and 36 mm Hg

Question: And the “Mean IOP, 4 weeks” value ([2]; 4 weeks, mean baseline 40.125)?
Answer: 26.1 mm Hg

Question: What about the “IOP, individual eyes, 5 mon” value ([2]; 5 mon after single ~24 mg) of the same molecule?
Answer: 15 mm Hg and 17 mm Hg and 21 mm Hg and 22 mm Hg

Question: And the “Mean IOP, 5 mon” value ([2]; 5 mon, mean baseline 40.125)?
Answer: 20 mm Hg

Question: What about the “IOP, individual eyes, 6 mon” value ([2]; 6 mon after single ~24 mg) of the same molecule?
Answer: 19 mm Hg (3×) and 15 mm Hg

Question: And the “Mean IOP, 6 mon” value ([2]; 6 mon, mean baseline 40.125)?
Answer: 17.6 mm Hg

Question: And the “IOP, individual eyes, 6.2 mon” value ([2]; 6.2 mon after single ~24 mg)?
Answer: 26 mm Hg

Question: And the “IOP, individual eyes, 6.5 mon” value ([2]; 6.5 mon after single ~24 mg)?
Answer: 38 mm Hg

Question: What about the “IOP, individual eyes, 7 mon” value ([2]; 7 mon after single ~24 mg) of the same molecule?
Answer: 17 mm Hg and 18 mm Hg (2×)

Question: What about the “Mean IOP, 7 mon” value ([2]; 7 mon, mean baseline 40.125) of the same molecule?
Answer: 17.6 mm Hg

Question: What about the “Mean IOP, 8 mon” value ([2]; 8 mon) of the same molecule?
Answer: 26.5 mm Hg

Question: And the “IOP, individual eyes, 8 mon” value ([2]; 8 mon after single ~24 mg)?
Answer: 31 mm Hg and 22 mm Hg

Question: And the “Mean IOP, 9 mon” value ([2]; 9 mon)?
Answer: 17.3 mm Hg

Question: And the “IOP, individual eyes, 9 mon” value ([2]; 9 mon after single ~24 mg)?
Answer: 15 mm Hg and 19 mm Hg and 18 mm Hg

Question: And the “Mean IOP, 12 mon” value ([2]; 12 mon)?
Answer: 19.6 mm Hg

Question: And the “IOP, individual eyes, 12 mon” value ([2]; 12 mon after single ~24 mg)?
Answer: 15 mm Hg and 22 mm Hg (2×)

Question: And the “Mean IOP, 13 mon” value ([2]; 13 mon)?
Answer: 19.6 mm Hg

Question: What about the “IOP, individual eyes, 13 mon” value ([2]; 13 mon after single ~24 mg) of the same molecule?
Answer: 18 mm Hg and 22 mm Hg and 19 mm Hg

Question: What about the “Mean IOP, 14 mon” value ([2]; 14 mon) of the same molecule?
Answer: 25.5 mm Hg

Question: What about the “IOP, individual eyes, 14 mon” value ([2]; 14 mon after single ~24 mg) of the same molecule?
Answer: 25 mm Hg and 26 mm Hg

Question: And the “Mean IOP, 15 mon” value ([2]; 15 mon)?
Answer: 24 mm Hg

Question: And the “IOP, individual eyes, 15 mon” value ([2]; 15 mon after single ~24 mg)?
Answer: 26 mm Hg and 22 mm Hg

Question: And the “Mean IOP, 17 mon” value ([2]; 17 mon)?
Answer: 18.5 mm Hg

Question: And the “IOP, individual eyes, 17 mon” value ([2]; 17 mon after single ~24 mg)?
Answer: 19 mm Hg and 18 mm Hg

Question: What about the “Mean IOP, 18 mon” value ([2]; 18 mon) of the same molecule?
Answer: 18 mm Hg

Question: And the “IOP, individual eyes, 18 mon” value ([2]; 18 mon after single ~24 mg)?
Answer: 19 mm Hg and 17 mm Hg

Question: What about the “IOP, individual eyes, 20 mon” value ([2]; 20 mon after single ~24 mg) of the same molecule?
Answer: 16 mm Hg

Question: What about the “IOP decrease in all eyes” value ([2]; eight eyes, single ~24 mg) of the same molecule?
Answer: All eyes had marked IOP decrease

Question: And the “mean IOP decrease at one week” value ([2]; eight eyes, single ~24 mg)?
Answer: 11.4 mm Hg

Question: And the “mean IOP decrease at three weeks (maximum decrease)” value ([2]; eight eyes, single ~24 mg)?
Answer: 16.4 mm Hg

Question: What about the “IOP decrease in one eye at 2 months” value ([2]; eye that needed filtration surgery, resultant IOP 30 mm Hg) of the same molecule?
Answer: 45%

Question: What about the “time for which recurrence of elevated IOP was prevented” value ([2]; remaining five eyes, IOP elevation due to triamcinolone reversed) of the same molecule?
Answer: up to 12 months

Question: And the adverse events ([2]; single ~24 mg)?
Answer: without adverse events

Question: What about the “duration of IOP reductions” value ([2]; single ~24 mg) of the same molecule?
Answer: at least 6 months

Question: What about the “patients avoiding glaucoma filtration surgery” value ([2]; single ~24 mg) of the same molecule?
Answer: 75%

Question: What about the “patients who maintained an IOP of ≦21 mm Hg for 3 months” value (“patients who maintained an IOP” for short) ([3]; 3 mg group (22 patients)) of the same molecule?
Answer: 7 patients

Question: And the “patients who maintained an IOP” value ([3]; 15 mg group (20 patients))?
Answer: 6 patients

Question: What about the “patients who maintained an IOP” value ([3]; 30 mg group (22 patients)) of the same molecule?
Answer: 11 patients

Question: What about the “duration of IOP reductions after a single administration” value ([3]; p<0.05 for all concentrations relative to vehicle at month 3, ANOVA) of the same molecule?
Answer: ≥ 3 months

Question: And the “effect on dexamethasone induced myocilin expression” value [4]?
Answer: inhibition

Question: What about the “effect on IOP elevation associated with topical dexamethasone” value [5] of the same molecule?
Answer: decreases the IOP elevation

Question: What does the source list for `CC1(C)O[C@@H]2C[C@H]3[C@@H]4CCC5=CC(=O)C=C[C@]5(C)[C@@]4(F)[C@@H](O)C[C@]3(C)[C@]2(C(=O)CO)O1` [triamcinolone, triamcinolone acetonide]?
Answer: IOP reached [6]: ~60 mm Hg; earliest onset of IOP elevation [6]: 4 days

Question: Which results are given for `CCN[C@H]1CN(CCCOC)S(=O)(=O)c2sc(S(N)(=O)=O)cc21` [brinzolamide]?
Answer: maximum IOP lowering from baseline ([7]; 1% suspension topically once per day for seven days): 11.1%; Mean change in IOP ([7]; 1% suspension topically once per day for seven days, mean pretreatment IOP 28.37 mm Hg): −2.48 mm Hg; time of peak levels of IOP change ([7]; both topical and subtenon's groups): ≤ 3 days; maximum percent IOP lowering ([7]; one anterior sub-Tenon's administration of 800 μl 1% suspension): 15.9%; Mean change in IOP ([7]; one anterior sub-Tenon's administration of 800 μl 1% suspension, mean pretreatment IOP 27.44 mm Hg): −1.85 mm Hg; mean percent IOP change from baseline compared to BSS control ([7]; subtenon's injection group): statistically lower at all points; mean percent IOP change from baseline compared to BSS control ([7]; topical administration group): statistically lower at all points
